In brackets after ≈: the same amount, converted by molar mass. Where two headings read alike, the source gives them in different places. One block for each molecule: values may come before it.
Columns and labels:
[1] = parameters: method as in ref 34 = [34]; Robert C. W. , Handbook of Chemistry and Physics , ed. R. C. Weast , CRC Press , Ohio , 55th edn, 1975; details: at 25 °C; cited from earlier work
[2] = parameters: method as in as printed in each cell: ref 60, 62, 63, 10, 64; details: cited from earlier work
[3] = cited from earlier work
[4] = Differential scanning calorimetry, glass transition; format: physicochemical; details: for Tg, Gordon–Taylor (glass transition temperature): calculated by Gordon–Taylor equation with crystalline densities
Description: DSC was performed using a Q20 instrument V24.7 build 119 thermal analysis system with an intercooler system (Elstree, United Kingdom). The DSC system was calibrated and validated using indium (average melting temperature 156.36 ± 0.03 °C and enthalpy 29.81 ± 0.05 J g^−1). Powder samples of 1 to 5 mg were weighed in T-zero aluminum pans with T-zero lids (TA Instruments – A Division of Waters Ltd, Centennial Avenue, Elstree, Hertfordshire, United Kingdom). […] All results were analyzed using the TRIOS software for the phases transitions to determine the glass transition temperature (Tg) and melting point (Tm).
Indomethacin (as received) was analyzed in two heating cycles to produce an amorphous form. The first cycle was to measure the Tm of the crystalline form and the second cycle was for obtaining the Tg of amorphous indomethacin. The freeze-dried complexes and crystalline arginine, histidine and lysine were undergone one heating cycle to determine the Tg or Tm. The Tg described by Gordon–Taylor[39] was determined for drug–basic amino acids binary systems using the given equations below.
The Gordon–Taylor equation from composite glasses:3 [drawing 3]
T g(mix) is the glass transition temperature of a binary mixture, w1 and w2 are the weight fraction and Tg1 and Tg2 are the glass transitions temperature of individual compound in the mixture, K is typically considered an empirical constant:4 [drawing 4] where p1 and p2 are the powder densities of the single amorphous components. The crystalline densities of compounds (pIND = 1.379 g cm^−3pARG = 1.325 g cm^−3, pHIS = 1.412 g cm^−3 and pLYS = 1.237 g cm^−3) were used as approximation because small differences in density were reported between crystalline and amorphous form of small molecular compound.[9]

[5] = parameters: method as in ref 34 = [34]; Robert C. W. , Handbook of Chemistry and Physics , ed. R. C. Weast , CRC Press , Ohio , 55th edn, 1975; details: cited from earlier work
[6] = pH-solubility study, shake flask method; format: physicochemical; details: mean ± SD n = 3
Description: The samples were then filtered using a membrane filter (syringe filter, 0.45 μm sterile). The filtered solutions were diluted within the range of calibration curves and analyzed spectrophotometrically at 260 nm.

[7] = Physical and chemical stability of indomethacin in solution (UV-Vis); format: physicochemical
Description: Spectra were collected using the UV Lambda software over the wavelength range of 400 nm–200 nm. The same solvent without the drug/amino acid was used as the reference. Samples were analyzed at identical conditions: slit width 1 nm, bandwidth 0.5 nm, pair cuvette cells 1 cm.
The results were recorded for samples stored over a week at ambient temperature (25 ± 1 °C). Chemical stability was confirmed by measuring the UV absorbance at 320 nm.

[8] = Hydrotropic solubilization in amino acid solutions at controlled pH; format: physicochemical
Description: The pH of the solutions was adjusted by adding 0.1 M hydrochloric acid and monitored with a pH meter (OXOID limited, England). Excess indomethacin was then added to the amino acid solutions. The suspension was stirred with a magnetic stirrer for 24 hours at 30 ± 2 °C or 45 ± 2 °C until it is equilibrated followed by adjusting the pH again. The samples were then filtered via a membrane filter (syringe filter, 0.45 μm sterile).

[9] = parameters: method as in ref 42 = [42]; Archontaki H. A. Kinetic Study on the Degradation of lndomethacin in Alkaline Aqueous Solutions by Derivative Ultraviolet Spectrophotometry Analyst 1995 120 1 8; details: pH = 13; cited from earlier work
[10] = Drug content and chemical stability of freeze-dried mixtures by UV-Vis; format: physicochemical; details: with all amino acids, peak position at 320 nm
Description: The resulting filtrates were frozen for 24 hours at −80 °C and then freeze-dried for 48 hours (LTE Scientific Lyotrap Freeze Dryer, Great Britain, Greenfield, Oldham) with the system temperature of −51 ± 2 °C, pressure of around 0.1 mbar and the vacuum pump operated at a flow rate of 21 m^3 h^−1. The freeze-dried samples were then transferred into a plastic vacuum desiccator containing phosphorous pentoxide desiccant (P2O5) at ambient temperature (22 ± 2 °C). Indomethacin–sodium salt was also produced for comparison purposes.
The freeze-dried samples were prepared by dissolving 10 mg freeze-dried materials in water in a 10 mL volumetric flask. The solutions were then diluted to concentrations that fall within the calibration curve and analyzed at 320 nm. The percentage drug content[37] was calculated by eqn (2)2 [drawing 2]

[11] = Phase solubility diagrams of indomethacin in basic amino acid solutions and complexation efficiency; format: physicochemical; details: 30 °C
Description: After equilibration, the mixtures were centrifuged at 3750 rpm for 10 minutes (Beckman Coulter Allegra X-12 Series). […] The supernatant was filtered via a membrane filter (syringe filter, 0.45 μm sterile). The solutions were then diluted within the calibration curve range and analyzed spectrophotometrically at 260 nm. The precipitates (solid phase) were filtered again using filter paper (Whatman Grade 3). The solid phase was dried in an oven at 70 °C for 30 minutes, then examined using FTIR.
The complexation or solubilizing efficiency (CE)[36] was calculated from the slope of the linear drug–amino acid phase solubility (PS) diagram using the following eqn (1):1 [drawing 1] where K1:1 indicates to the stability constant, which is used to compare the affinity of drug to different amino acids. S0 refers to the intrinsic solubility, [drug–amino acid complex] is the concentration of dissolved drug–amino acid complex, [amino acid] is the concentration of dissolved free amino acid and slope is the slope of the phase solubility diagram.

SMILES: NCCCC[C@H](N)C(=O)O [Lysine, L-lysine]
Water solubility [1]: Very soluble | Tg, lit. (glass transition temperature) [2]: 68.0 (ref. [63]) °C | pI (isoelectric point) [3]: 9.47 | Tg, Gordon–Taylor (glass transition temperature) [4]: 68.0 °C

Tg, Gordon–Taylor (glass transition temperature) [4]: 37.0 °C
SMILES: N[C@@H](Cc1c[nH]cn1)C(=O)O [Histidine, L-histidine]
Water solubility [1]: 4.20 g/100 mL | Tg, lit. (glass transition temperature) [2]: 37.0 (ref. [63]) °C | pI (isoelectric point) [3]: 7.59

SMILES: N=C(N)NCCC[C@H](N)C(=O)O [Arginine, L-arginine]
Tg, Gordon–Taylor (glass transition temperature) [4]: 55.0 °C

SMILES: NCC(=O)O [Glycine, glycine]
pI (isoelectric point) [3]: 5.97

SMILES: CC[C@H](C)[C@H](N)C(=O)O [Isoleucine, L-isoleucine]
Water solubility [1]: 0.41 g/100 mL | log p (partition coefficient) [5]: −1.70 | pI (isoelectric point) [3]: 6.04

solubility at 24 h ([6]; 25 °C, simulated gastric fluid, thermodynamic from solid, 25 ± 2 °C, water pH 1.2, unionized form, read-out: Intrinsic solubility (S0)): 0.95 µM (≈ 0.34 µg/mL) | solubility at 24 h ([6]; 25 ± 2 °C, water pH 6.3, ionized and unionized forms, read-out: Aqueous solubility (S)): 64.2 µM (≈ 23 µg/mL) | solubility at 24 h ([6]; 30 °C, aqueous buffer, thermodynamic from solid, 30 ± 2 °C, water pH 6.3, ionized and unionized forms, read-out: Aqueous solubility (S)): 81.6 µM (≈ 29.2 µg/mL) | solubility at 24 h ([6]; 30 ± 2 °C, water pH 1.2, unionized form, read-out: Intrinsic solubility (S0)): 1.18 µM (≈ 0.422 µg/mL) | Stability in solution (UV absorbance) ([7]; arginine solution, pH 10.3): gradually degraded after 24 hours | Stability in solution (UV absorbance) ([7]; basic amino acid solutions, pH 6.3 to 10.3, duration of experiment less than 24 hours): remains stable | Stability in solution (UV absorbance) ([7]; histidine solution, pH 7.5): stable over a week | Stability of indomethacin concentration in lysine aqueous solution on storage ([7]; lysine concentration between 27 and 37 mM (supersaturated, partial precipitation)): dropped after 1 day of storage | Stability of indomethacin concentration in lysine aqueous solution on storage ([7]; lysine concentrations below 27 mM, examined for ten days): appears stable | Stability in solution (UV absorbance) ([7]; lysine solution, pH 10): gradually degraded after 24 hours | Solubility improvement of ionized indomethacin compared to aqueous solubility at same pH without histidine ([8]; 0.35 M histidine solution, pH 7): ~8 fold | Solubility improvement of unionized indomethacin compared to intrinsic solubility in water ([8]; 1.5 M isoleucine solution, pH 1.2, 30 °C): ~25 fold | Solubility improvement of unionized indomethacin compared to intrinsic solubility in water ([8]; 1.6 M arginine solution, pH 1.2, 30 °C): ~11 fold | Solubility change of unionized indomethacin compared to intrinsic solubility in water ([8]; glycine solution, same concentration, pH 1.2, 30 °C): did not change | Chemical stability after freeze-drying [10]: chemically stable | Phase solubility diagram type (Higuchi and Connors) ([11]; indomethacin in arginine solution above 250 mM): AN-type | Phase solubility diagram type (Higuchi and Connors) ([11]; indomethacin in arginine solution below 250 mM): AL-type | Phase solubility diagram type (Higuchi and Connors) ([11]; indomethacin in lysine solutions): Bs-type | Tg, exp. (glass transition temperature) ([4]; DSC 5 °C/min, n = 3, IND melt quench, mixtures freeze-dried): 42.1 ± 0.5 °C | Tg, Gordon–Taylor (glass transition temperature) [4]: 42.1 °C
SMILES: COc1ccc2c(c1)c(CC(=O)O)c(C)n2C(=O)c1ccc(Cl)cc1 [Indomethacin]
Stability in solution of high pH [9]: rapidly hydrolyzed | Water solubility [1]: 0.009 g/100 mL | log p (partition coefficient) [5]: 4.05 | Tg, lit. (glass transition temperature) [2]: 42.0 (ref. [60]) °C
